From patent US20210214421A1 (priority 2018, published 2021)

Key:
Test in all cases: microbe, parasite or virus in culture
Assay type in all cases: cell-based
[1] = test system: Staphylococcus pseudintermedius strain 69687; conditions: Staphylococcus pseudintermedius, 69687, 24 h, read-out: minimal inhibiting concentration (breakthrough point)
[2] = test system: Staphylococcus pseudintermedius strain 23929; conditions: Staphylococcus pseudintermedius, 23929, 24 h, read-out: minimal inhibiting concentration (breakthrough point)
[3] = test system: Staphylococcus pseudintermedius strain GL151A; conditions: 24 h, read-out: minimal inhibiting concentration (breakthrough point)
[4] = test system: Staphylococcus pseudintermedius strain HH15; conditions: HH15, 24 h, read-out: minimal inhibiting concentration (breakthrough point)

Measured: MIC

CCC[C@@H]1C[C@@H](C(=O)N[C@@H]([C@H]2O[C@H](SC)[C@H](O)[C@@H](O)[C@H]2O)[C@H](C)Cl)N(C)C1 [clindamycin]
625 µg/mL: all assays above
